Results taken from ChEMBL document CHEMBL1129019, “CCK-4 restricted analogues containing a 3-oxoindolizidine skeleton” (Bioorg Med Chem Lett, 1996).

Columns and labels:
[1] = molecular target: T1, Cholecystokinin receptor type A (Rattus norvegicus, UniProt P30551); assay: Binding of [3H]propionyl-CCK-8 to Cholecystokinin type A receptor from rat pancreas
T1 sequence (P30551 whole entry): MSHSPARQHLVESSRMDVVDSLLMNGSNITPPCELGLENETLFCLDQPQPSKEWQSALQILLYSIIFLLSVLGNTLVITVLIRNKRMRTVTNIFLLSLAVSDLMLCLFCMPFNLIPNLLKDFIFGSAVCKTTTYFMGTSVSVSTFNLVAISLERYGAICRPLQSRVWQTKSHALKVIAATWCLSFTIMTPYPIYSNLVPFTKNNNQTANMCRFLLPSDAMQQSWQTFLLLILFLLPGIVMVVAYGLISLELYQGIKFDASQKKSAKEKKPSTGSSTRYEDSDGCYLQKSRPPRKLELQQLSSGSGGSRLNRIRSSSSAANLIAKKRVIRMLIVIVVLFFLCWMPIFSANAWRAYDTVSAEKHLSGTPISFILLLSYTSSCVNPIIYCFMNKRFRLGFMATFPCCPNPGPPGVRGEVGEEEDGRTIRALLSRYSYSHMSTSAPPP

[2] = molecular target: T2, Gastrin/cholecystokinin type B receptor (Rattus norvegicus, UniProt P30553); assay: Binding of [3H]propionyl-CCK-8 to Cholecystokinin type B receptor from rat cerebral cortex.; type: tissue-based
T2 sequence (P30553 whole entry): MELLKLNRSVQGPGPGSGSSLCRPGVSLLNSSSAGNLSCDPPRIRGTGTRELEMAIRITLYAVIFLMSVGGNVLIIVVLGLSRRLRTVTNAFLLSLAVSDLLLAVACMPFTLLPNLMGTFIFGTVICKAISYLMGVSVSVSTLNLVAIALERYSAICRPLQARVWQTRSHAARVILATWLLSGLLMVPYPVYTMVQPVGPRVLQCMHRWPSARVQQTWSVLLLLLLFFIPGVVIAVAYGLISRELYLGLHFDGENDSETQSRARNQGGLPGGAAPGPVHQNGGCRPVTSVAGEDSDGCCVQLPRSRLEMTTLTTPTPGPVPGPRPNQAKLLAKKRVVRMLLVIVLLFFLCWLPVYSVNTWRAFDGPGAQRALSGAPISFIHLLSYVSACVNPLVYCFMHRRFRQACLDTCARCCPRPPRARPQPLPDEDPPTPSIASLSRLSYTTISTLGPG

CC(C)(C)OC(=O)N[C@@H](Cc1c[nH]c2ccccc12)C(=O)N[C@H]1CCCN2C(=O)[C@](Cc3ccccc3)(C(N)=O)C[C@H]12
IC50 [1]: > 10000 nM | IC50 [2]: 3.53 µM

COC(=O)[C@@]1(Cc2ccccc2)C[C@H]2[C@H](NC(=O)[C@@H](Cc3c[nH]c4ccccc34)NC(=O)OC(C)(C)C)CCCN2C1=O
IC50 [1]: > 10000 nM | IC50 [2]: > 10 µM

COC(=O)[C@@]1(Cc2ccccc2)C[C@H]2[C@H](NC(=O)[C@@H](Cc3c[nH]c4ccccc34)NC(=O)C34CC5CC(CC(C5)C3)C4)CCCN2C1=O
IC50 [1]: 980 nM | IC50 [2]: 2.19 µM

COC(=O)[C@]1(Cc2ccccc2)C[C@@H]2[C@@H](NC(=O)[C@@H](Cc3c[nH]c4ccccc34)NC(=O)OC(C)(C)C)CCCN2C1=O
IC50 [1]: > 10000 nM | IC50 [2]: 3.72 µM

CC(C)(C)OC(=O)N[C@@H](Cc1c[nH]c2ccccc12)C(=O)N[C@H]1CCCN2C(=O)[C@@](Cc3ccccc3)(C(N)=O)C[C@H]12
IC50 [1]: 1020 nM | IC50 [2]: > 10 µM

COC(=O)[C@]1(Cc2ccccc2)C[C@H]2[C@H](NC(=O)[C@H](Cc3c[nH]c4ccccc34)NC(=O)OC(C)(C)C)CCCN2C1=O
IC50 [1]: > 10000 nM | IC50 [2]: > 10 µM

COC(=O)[C@@]1(Cc2ccccc2)C[C@@H]2[C@@H](NC(=O)[C@H](Cc3c[nH]c4ccccc34)NC(=O)OC(C)(C)C)CCCN2C1=O
IC50 [1]: 2350 nM | IC50 [2]: > 10 µM

CC1(C)[C@H]2CC[C@@]1(C)[C@H](OC(=O)N[C@](C)(Cc1c[nH]c3ccccc13)C(=O)NC[C@H](NC(=O)CCC(=O)O)c1ccccc1)C2
IC50 [1]: 1120 nM | IC50 [2]: 0.009 µM

COC(=O)[C@@]1(Cc2ccccc2)C[C@@H]2[C@@H](NC(=O)[C@@H](Cc3c[nH]c4ccccc34)NC(=O)OC(C)(C)C)CCCN2C1=O
IC50 [1]: > 10000 nM | IC50 [2]: > 10 µM

COC(=O)[C@]1(Cc2ccccc2)C[C@@H]2[C@@H](NC(=O)[C@@H](Cc3c[nH]c4ccccc34)NC(=O)C34CC5CC(CC(C5)C3)C4)CCCN2C1=O
IC50 [1]: > 10000 nM | IC50 [2]: 0.22 µM

CC(C)(C)OC(=O)N[C@H](Cc1c[nH]c2ccccc12)C(=O)N[C@H]1CCCN2C(=O)[C@](Cc3ccccc3)(C(N)=O)C[C@H]12
IC50 [1]: > 10000 nM | IC50 [2]: 0.82 µM
